Key:
NT-3 mRNA = assay: Northern blot of neurotrophin mRNA from astrocytes: NT-3; type: cell-based, NIH Swiss mice; design: key: The conditions which produced a detectable amount of each of the neurotrophin mRNAs are indicated by a “+”; a “++” indicating that at least twice the detectable amount was present; Those blots which were negative are indicated by a “−”; conditions: 24 hours
Experimental: Induction of neurotrophin mRNA was determined by northern blot analysis of astrocytes cultured with AIT-082, NGF, or both. The cells were harvested and RNA extracted at 24 hours after treatment.
More particularly, astrocytes from the cerebral cortex of NIH Swiss mice (Harlan) were isolated. Briefly, newborn pups (0-24 hours) were decapitated. Their brains were removed under aseptic conditions and were placed in modified Dulbecco's medium (DMEM) containing 20% heat-inactivated horse serum (Hyclone) (“complete medium”). The neopallium was then dissected from each cerebral hemisphere and minced into 1 mm cubes.
The astrocytes were then isolated by mechanical dissociation. The cubes were vortexed at maximum speed for one minute. The cell suspension was then passed first through 75 mm Nitex then through 10 mm Nitex. The resulting cell suspension was diluted in complete medium to a final concentration of one brain per 10 ml of complete medium. Ten milliliters of the diluted cell suspension was added to each 100 mm Falcon tissue culture plate (Fisher). After 3 days the medium was replaced with 10 ml fresh complete medium and subsequently was replaced twice weekly with DMEM containing 10% heat inactivated horse serum (“growth medium”). After two weeks in culture the astrocytes formed a confluent monolayer.
For RNA extraction, astrocytes were trypsinized. The astrocytes were then replated onto 100 mm PORN coated plates at a cell density of 10^6 cells per plate (10 ml growth medium). […]
The blots were probed with ^32P-labeled cDNA (NGF, NT-3 and BDNF probes) or oligonucleotide probe (FGF-2) by hybridization in Piperazine-N,N′-bis-(2-ethanesulfonic acid) (PIPES) buffer (50 mM PIPES, pH 6.8; 50 mM NaH2PO4; 0.1 M NaCl; 5% SDS and 1 mM EDTA) overnight at 50° C. […] Various concentrations ([…] of total RNA), as determined by spectrophotometry, of each sample were blotted and probed so that quantification could be done after insuring a linear film response. Quantification was performed using MCID Image Analysis (St. Catherine's, Ontario, Canada). […]

NGF = assay: Two-site ELISA of growth factor protein in rat brain and spinal cord: NGF; type: in vivo, F344 rats
Experimental: Adult female F344 rats were given either AIT-082 (doses: 30 mg/kg/day or a higher dose of 30 mg/ml (˜3,000 mg/kg/day); n=6 rats per group) in their drinking water, or water alone, as a vehicle for control. The duration of the study was seven days, at which time the rats were anesthesized and perfused with ice-cold saline. The brains of the rats were rapidly removed. The brains were placed on a chilled glass plate and dissected into the following regions: basal forebrain, frontal cortex, parietal cortex, cerebellum, spinal cord, and hippocampal formation. Tissues were stored at −70° C. until assayed in a specific two-site ELISA for either NGF, BDNF, NT-3, or GNDF.
The results are shown in FIGS. 45 (BDNF), 46 (NT-3), 47 (GDNF) and 48 (NGF). For the results shown in FIGS. 45-48, animals were given only water (VEH, n=6) or water with AIT-082 at either 30 mg/kg/day (n=6) or 30 mg/ml (n=6) for seven days. The levels of each growth factor were determined in the frontal cortex (F. Cor.), parietal cortex (P.Cor.), hippocampal formation (Hipp.), basal forebrain (B.F.), cerebellum (Cer.), or spinal cord (Cord) using a specific two-site ELISA for each growth factor.
Adult female rats were given AIT-082 (30 mg/kg/day) in their drinking water or drinking water alone (n=6 for each group) for seven days prior to receiving a bilateral fimbria fornix transection (FFT).
The results are shown in FIGS. 49 (BDNF), 50 (NT-3), 51 (GDNF) and 52 (NGF). […] Levels of the growth factor were determined in frontal cortex (F.Cor.), parietal cortex (P.Cor.), hippocampal formation (Hipp.), basal forebrain (B.F.), cerebellum (Cer.), or spinal cord (Cord) using a specific two-site ELISA for each growth factor. […]
Results are shown in FIGS. 53 (BDNF), 54 (NT3), 55 (GDNF), and 56 (NGF). […] Levels of each growth factor were determined in frontal cortex (F.Cor.), parietal cortex (P. Cor.), hippocampal formation (Hipp.), basal forebrain (B.F.), cerebellum (Cer.) or spinal cord (Cord) using a specific two-site ELISA.

S100β protein = assay: Western blot of astrocyte cytosolic proteins: S100β; type: cell-based, rat; conditions: 100 μM AIT-082

O=C(CCn1cnc2c(=O)[nH]cnc21)Nc1ccc(C(=O)O)cc1 [AIT-082, N-4-carboxyphenyl-3-(6-oxohydropurin-9-yl)propanamide]
NT-3 mRNA (NT-3 mRNA; AIT-082 100 mM): ++ | NT-3 mRNA (NT-3 mRNA; AIT-082 + NGF (40 ng/ml)): + | NGF protein levels (NGF; FFT-lesioned rats, 30 mg/kg/day): No significant increases | NGF protein levels (NGF; aged rats, 30 mg/kg/day 30 days, any brain region): no effect | NGF protein levels (NGF; intact adult rats): No changes | ex novo synthesis of S100β protein (S100β protein): did not stimulate ex novo synthesis of S100β protein
